US11912682B2, “Isoindolinone compounds” (Monte Rosa Therapeutics, Inc., priority 2021, dated 2024)

Columns and labels:
Assay type in all cases: cell-based
GSPT1 = GSPT1 (Homo sapiens (Human), UniProt P15170+Q96SW2); test: quantitative proteomics analysis in ABC1 cells; conditions: 100 nM, 6 hr
Description: Quantitative Proteomics Analysis: ABC1 cells were treated with either DMSO (2 replicates) or compound 10 at 100 nM (2 replicates) for 6 hr. Proteins were extracted with the PreOmics iST-NHS lysis buffer (#P.O.00030). The samples were then processed using the PreOmics kit following their recommended protocol with minor modifications. In brief, the proteins were reduced, alkylated and digested for 2 h at 37° C. The peptides were then labelled with TMT reagent (1:4; peptide:TMT label) (Thermo Fisher Scientific). After quenching, the peptides were purified, and the 16 samples were combined to a 1:1 ratio. […] Eluted TMT peptides were analyzed on an Orbitrap Eclipse mass spectrometer (Thermo Fisher Scientific). […] Precursors were fragmented by CID at a normalized collision energy (NCE) of 35% and analyzed in the ion trap. Following MS2, synchronous precursor selection (SPS) MS3 scans were collected by using high energy collision-induced dissociation (HCD) and fragments were analyzed using the Orbitrap (NCE 55%, AGC target 1×10^5, maximum injection time 120 ms, resolution 60,000). Protein identification and quantification were performed using Proteome Discoverer 2.4.0.305 with the SEQUEST algorithm and Uniprot human database (2021 Jan. 29, 20614 protein sequences). […] Protein relative quantification was performed using an in-house developed java notebook. […]

CK1alpha = CK1alpha (Homo sapiens (Human), UniProt P48729); test: CK1alpha degradation in cells treated with compound (FIG. 1A); conditions: concentrations up to 30 µM
Chain of CK1alpha (P48729 whole entry, looked up): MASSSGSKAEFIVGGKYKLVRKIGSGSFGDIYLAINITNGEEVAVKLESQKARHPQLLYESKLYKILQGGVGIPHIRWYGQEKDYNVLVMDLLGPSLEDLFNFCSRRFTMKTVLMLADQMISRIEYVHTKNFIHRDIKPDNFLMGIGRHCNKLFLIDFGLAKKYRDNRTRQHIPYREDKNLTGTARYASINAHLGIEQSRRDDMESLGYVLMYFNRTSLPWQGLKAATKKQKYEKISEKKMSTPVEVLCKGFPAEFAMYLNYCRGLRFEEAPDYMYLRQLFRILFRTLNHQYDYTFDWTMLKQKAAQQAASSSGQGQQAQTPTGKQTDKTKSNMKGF

SALL = SALL (Homo sapiens (Human), UniProt Q9UJQ4); test: SALL degradation in cells treated with compound (FIG. 1A); conditions: concentrations up to 30 µM
Chain of SALL (Q9UJQ4 whole entry, looked up): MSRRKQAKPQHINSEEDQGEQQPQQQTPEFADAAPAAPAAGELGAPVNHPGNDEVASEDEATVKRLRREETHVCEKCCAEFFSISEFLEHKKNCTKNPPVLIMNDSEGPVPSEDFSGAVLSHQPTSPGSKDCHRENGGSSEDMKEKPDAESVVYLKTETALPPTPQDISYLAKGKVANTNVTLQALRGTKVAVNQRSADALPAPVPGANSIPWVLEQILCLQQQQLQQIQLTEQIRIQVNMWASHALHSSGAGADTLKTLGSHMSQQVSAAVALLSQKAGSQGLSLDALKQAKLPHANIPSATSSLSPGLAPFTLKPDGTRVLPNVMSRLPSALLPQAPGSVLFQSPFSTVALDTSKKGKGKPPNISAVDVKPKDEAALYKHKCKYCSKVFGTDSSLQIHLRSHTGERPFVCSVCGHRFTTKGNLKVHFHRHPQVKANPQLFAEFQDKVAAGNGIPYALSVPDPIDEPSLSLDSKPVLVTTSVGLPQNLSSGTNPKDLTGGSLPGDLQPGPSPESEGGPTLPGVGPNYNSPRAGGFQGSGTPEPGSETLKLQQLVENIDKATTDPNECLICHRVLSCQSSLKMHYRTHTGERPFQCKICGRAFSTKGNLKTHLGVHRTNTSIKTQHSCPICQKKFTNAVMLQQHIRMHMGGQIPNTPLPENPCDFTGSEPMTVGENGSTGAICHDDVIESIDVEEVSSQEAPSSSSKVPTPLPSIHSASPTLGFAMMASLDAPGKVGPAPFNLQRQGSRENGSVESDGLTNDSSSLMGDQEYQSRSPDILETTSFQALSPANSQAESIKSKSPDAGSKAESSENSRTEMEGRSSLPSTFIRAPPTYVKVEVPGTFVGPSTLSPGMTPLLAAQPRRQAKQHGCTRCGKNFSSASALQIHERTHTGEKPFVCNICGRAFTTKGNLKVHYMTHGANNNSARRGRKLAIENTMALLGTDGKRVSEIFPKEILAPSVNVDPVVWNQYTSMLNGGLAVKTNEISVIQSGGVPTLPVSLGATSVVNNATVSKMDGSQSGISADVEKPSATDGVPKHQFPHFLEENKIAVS

[1] = system: NCI-H1155, ABC-1 and EBC-1, NCI-H2023; test: viability assay (CellTiter-Glo) in N-Myc high and N-Myc low NSCLC cell lines; conditions: 72 hours
Description: The anti-proliferative activity of compound 10 was tested on representative N-Myc high and N-Myc low cell lines (NCI-H1155, ABC-1 and EBC-1, NCI-H2023, respectively) following treatment with compound for 72 hours. Cells were sub-cultures as recommended by the providers (ATCC, DSMZ) and incubated at 37° C., 5% CO2. All cells were authenticated and confirmed by Short Tandem Repeat (STR) profiling. Briefly, cells were seeded to the appropriate density to allow logarithmic growth over the assay period in 96-well opaque-walled clear bottom plates (from Corning, Cat. No. 3903, Lot. No. 16419061; 100 μL total volume) and incubated overnight. […] Cell viability was assessed using the CellTiter-Glo assay kit as recommended by the Manufacturer (Promega, Cat. No. G7558, Lot. No. 0000385738) and measurements performed on the EnSpire multimode plate reader (Perkin Elmer). EC50 values were determined using Prism8 (GraphPad) and the asymmetric (five-parameter) equation and least squares fit. GSPT1 levels were assessed in the NCI-H1155 and ABC-1 cell lines by densitometry analysis following treatment with compound 10 for 6 hours and western blotting analysis. […] For chemiluminescence and colorimetric signals “optimal automatic exposure” settings (3×3 binning) were employed while fluorescence was detected using 1-4 seconds exposure time to achieve best GAPDH signals and avoid overexposure. […]

Chain of GSPT1 (P15170 whole entry, the tested form may be a part): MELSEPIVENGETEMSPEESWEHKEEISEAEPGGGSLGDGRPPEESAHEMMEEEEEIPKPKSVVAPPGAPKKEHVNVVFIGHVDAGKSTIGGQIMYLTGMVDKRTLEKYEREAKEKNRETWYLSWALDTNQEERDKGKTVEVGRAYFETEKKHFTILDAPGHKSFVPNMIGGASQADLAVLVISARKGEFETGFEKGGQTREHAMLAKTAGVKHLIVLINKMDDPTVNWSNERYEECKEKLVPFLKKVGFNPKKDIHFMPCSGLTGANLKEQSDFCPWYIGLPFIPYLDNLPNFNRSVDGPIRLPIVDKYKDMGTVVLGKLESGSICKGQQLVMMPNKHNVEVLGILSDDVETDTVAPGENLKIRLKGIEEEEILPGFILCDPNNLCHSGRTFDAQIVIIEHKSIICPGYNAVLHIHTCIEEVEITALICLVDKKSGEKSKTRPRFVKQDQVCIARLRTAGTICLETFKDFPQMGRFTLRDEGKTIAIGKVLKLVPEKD
Chain of GSPT1 (Q96SW2 whole entry, the tested form may be a part): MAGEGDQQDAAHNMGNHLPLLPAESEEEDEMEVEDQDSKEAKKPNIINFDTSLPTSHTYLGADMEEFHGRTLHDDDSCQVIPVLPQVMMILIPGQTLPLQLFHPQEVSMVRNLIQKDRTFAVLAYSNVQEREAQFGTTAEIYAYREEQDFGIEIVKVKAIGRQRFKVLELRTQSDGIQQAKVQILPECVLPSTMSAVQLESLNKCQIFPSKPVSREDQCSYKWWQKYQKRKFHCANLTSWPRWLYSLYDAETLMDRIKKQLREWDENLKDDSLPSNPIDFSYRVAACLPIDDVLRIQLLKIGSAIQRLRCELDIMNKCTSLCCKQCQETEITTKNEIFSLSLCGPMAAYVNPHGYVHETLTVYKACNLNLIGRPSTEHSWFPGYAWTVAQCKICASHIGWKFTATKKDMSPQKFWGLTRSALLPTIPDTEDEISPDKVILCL
Chain of GSPT1 (Q16531 2-1140 partner): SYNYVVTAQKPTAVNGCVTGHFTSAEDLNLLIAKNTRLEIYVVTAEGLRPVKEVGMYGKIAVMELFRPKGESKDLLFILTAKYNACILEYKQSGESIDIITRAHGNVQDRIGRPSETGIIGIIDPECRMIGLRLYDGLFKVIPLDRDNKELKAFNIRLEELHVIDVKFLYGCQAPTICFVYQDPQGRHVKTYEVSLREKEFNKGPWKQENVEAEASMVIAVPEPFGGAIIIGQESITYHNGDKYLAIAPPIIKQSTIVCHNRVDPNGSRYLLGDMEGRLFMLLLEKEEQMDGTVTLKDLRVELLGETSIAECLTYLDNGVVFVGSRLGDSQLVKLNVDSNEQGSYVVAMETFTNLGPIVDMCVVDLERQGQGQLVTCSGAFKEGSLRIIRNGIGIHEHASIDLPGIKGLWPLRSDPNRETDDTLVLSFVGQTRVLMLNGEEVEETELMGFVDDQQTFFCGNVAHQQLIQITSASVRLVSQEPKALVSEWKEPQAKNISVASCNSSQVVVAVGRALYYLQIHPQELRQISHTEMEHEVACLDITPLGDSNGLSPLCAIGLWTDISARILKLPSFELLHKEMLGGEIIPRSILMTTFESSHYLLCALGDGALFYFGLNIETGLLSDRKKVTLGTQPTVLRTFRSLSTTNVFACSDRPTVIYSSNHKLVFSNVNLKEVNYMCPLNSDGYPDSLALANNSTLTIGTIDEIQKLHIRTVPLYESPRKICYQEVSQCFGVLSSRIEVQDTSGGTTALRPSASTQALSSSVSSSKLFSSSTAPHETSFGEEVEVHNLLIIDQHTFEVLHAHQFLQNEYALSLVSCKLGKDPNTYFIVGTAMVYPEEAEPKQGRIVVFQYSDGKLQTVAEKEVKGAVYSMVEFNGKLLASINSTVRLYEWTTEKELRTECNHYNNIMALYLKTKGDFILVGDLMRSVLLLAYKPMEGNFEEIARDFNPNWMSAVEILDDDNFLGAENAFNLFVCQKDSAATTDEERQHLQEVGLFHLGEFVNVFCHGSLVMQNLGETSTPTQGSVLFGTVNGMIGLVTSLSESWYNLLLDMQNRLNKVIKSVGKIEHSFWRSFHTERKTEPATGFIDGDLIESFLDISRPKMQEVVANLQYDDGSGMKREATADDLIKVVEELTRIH

degradation of CK1alpha (CK1alpha): no induction of degradation
degradation of SALL (SALL): no induction of degradation
SMILES: Cc1ccc(NC(=O)OCc2ccc3c(c2)C(=O)N(C2CCC(=O)NC2=O)C3)cc1Cl (stereo not shown) [Compound 10]
protein downregulation by mass spectrometry-based proteomics (FIG. 1B) (GSPT1): GSPT1 was the most statistically significant downregulated protein
anti-proliferative sensitivity (FIG. 2A) [1]: sensitivity correlated with the expression of N-Myc
